According to paper PMC11409059, “Substitution of Glu378 in EF-Tu disrupts binding to KKL-55” (microPublication Biology, 2024):

Target: EF-Tu (6His-tagged EF-Tu, tufA) (Escherichia coli, UniProt P0CE47, E379A)
Assay: biochemical

With `CCCn1nnnc1NC(=O)c1cccc(Cl)c1` [KKL-55] the Kd was 2400 nM.
